EP1837033A1, “REMEDY FOR DIABETES CONTAINING Cdk5 INHIBITOR” (Tomizawa, Kazuhito, priority 2004, dated 2006)

Assays:
MIN6 cells [1] = assay: Insulin secretion of MIN6 cells in KRB, radioimmunoassay (Example 4); format: cell-based, rat; conditions: for high-glucose-stimulated insulin secretion: preincubated 30 minutes, stimulated 1 hour with 16.7 mM glucose
islets of Langerhans = assay: Insulin secretion from isolated islets of Langerhans; format: cell-based, rats; conditions: for insulin secretion in islets of Langerhans (insulin secretion percentage): low glucose 3.3 mM, 200 nM glibenclamide, 10 µM olomoucine, fig. 5; for insulin secretion: 10 µM, Ringer solution with a high glucose concentration, fig. 4
Method: In accordance with Goto et al. (Transplantaion, vol. 43, pp. 725 to 730, 1987), islets of Langerhans were isolated from 6-week-old male Wister rats. The rats were etherized so as to be subjected to thoracotomy. The common bile duct of each rat was removed and a collagenase solution (320 U/ml, Sigma) was slowly injected into the pancreas. Then, the swollen pancreas was excised. The collagenase-containing pancreas was digested at 37°C in a water bath for 30 minutes, followed by dispersion with the use of a pipet. Thereafter, islets of Langerhans were isolated based on the concentration gradient of a Ficoll solution (Amersham Pharmacia). The islets of Langerhans were incubated while being kept at 37°C for 30 minutes in a Ringer solution (119 mM sodium chloride, 4.74 mM potassium chloride, 1.19 mM sodium dihydrogen phosphate, 25 mM sodium bicarbonate, 10 mM HEPES, 2.54 mM calcium chloride, 1.19 mM magnesium chloride, and 0.2% BSA) saturated with a mixed gas of 95% O2 and 5% CO2.
30 minutes after replacement, insulin contained in each stimulation solution was detected using an insulin detection kit (Ab Bead Insulin, Eiken Chemical Co., Ltd.) in accordance with protocols of the kit. The experiment was conducted for each concentration group (n = 6).
30 minutes after replacement, insulin contained in each stimulation solution was using an insulin detection kit (Ab Bead Insulin, Eiken Chemical Co., Ltd.) in accordance with protocols for the kit.
Then, controls (n = 6), samples A (n = 6), samples B (n = 6), and samples C (n = 6) were prepared. […] Further, islets of Langerhans were subjected to ultrasonication for cell disruption, and insulin contents of islets of Langerhans were detected using an insulin detection kit (Ab Bead Insulin, Eiken Chemical Co., Ltd.) in accordance with protocols for the kit in a manner similar to that used above.
In addition, the insulin secretion percentage was calculated by the following formula. Insulin secretion percentage; = (Amount of insulin secreted(μU/ml))/(Amount of insulin in islets of Langerhans(μU/ml)) × 100(%) [formula]

MIN6 cells [2] = assay: Ca2+ imaging (fura-2) in MIN6 cells; format: cell-based, rat; conditions: 50 µM olomoucine
Method: MIN6 cells were cultured in a DMEM containing 15% fetal bovine serum, 25 mM glucose, […] 2-mercaptoethanol, and 2 mM glutamine (Lilla, V. et al. Endocrinology 144, 1368-1379 (2003); and Minami, K. et al. Am. J. Physiol. Endocrinol. Metab. 279, 773-781 (2000)). The cells (1 × 10^6) were seeded on a 35-mm glass bottom dish (IWAKI, Tokyo, Japan), followed by cell proliferation for 48 hours. For Ca^2+ imaging, the cells were preincubated at 37°C for 2 hours in a modified Krebs-Ringer bicarbonate HEPES buffer solution (KRB: 125 mM Nacl, 4.74 mM KCl, 1 mM CaCl2, […] KH2PO4, 5 mM NaHCO3, 25 mM HEPES (pH 7.4), and 0.1% BSA) containing 2.8 mM glucose. […] The resulting solution was replaced with KRB containing 17.6 mM glucose or KRB containing 100 nM glibenclamide. The Ca^2+ level of the cells was using an Axiovert 200 inverted microscope (Carl Zeiss Microlmaging) by a dual excitation wavelength method (340/380).
After washing, the cells were stimulated with 17.6 mM glucose (figs. 7a-1 and 7a-2) or 100 nM glibenclamide (figs. 7b-1 and 7b-2). Ca^2+ concentrations were presented as percentages of 340/380 nm fluorescent emission. The graphs (fgs. 7a-1 and 7b-1) show representative traces of changes in Ca^2+ concentration. The graphs (figs. 7a-2 and 7b-2) show the maximum Ca^2+ influxes. Data for each of 20 to 30 cells were collected after each experiment. The mean value of the total values was calculated and normalized every 3 to 4 experiments (*P < 0.01).

L-VDCC = assay: Whole-cell Ca2+ currents via VDCCs of MIN6 cells (electrophysiology); format: cell-based, rat; conditions: 50 µM olomoucine
MIN6 cells [3] = assay: Insulin secretion of MIN6 cells in Ringer solution (Example 3); format: cell-based, rat; conditions: 17.6 mM glucose, 20 µM, 2 hours, fig. 3
Method: MIN6 cells capable of secreting insulin (provided by Professor Susumu Seino, Doctral Program in Advanced Biomedical Applications, Department of Cellular and Molecular Medicine, Graduate School of Medicine, Chiba University, 1-33, Yayoi-cho, Inage-ku, Chiba-shi, Chiba, Japan) were cultured in accordance with the method of Mae et al. (American Journal of Physiological Endocrinal Metabolism, 2000, vol. […], pp. 773 to 781). MIN6 cells (5 × 10^5) were in a DMEM medium (GIBCO) and on a 35-mm culture dish (Corning Incorporated), followed by culture for 2 days in an incubator (5% CO2, SANYO).
After culture for 2 hours, insulin contained in medium was detected using an insulin detection kit (Ab Insulin, Eiken Chemical Co., Ltd.) in accordance with protocols for the kit.

[4] = test system: α1C subunit at Ser783 of L-VDCC; assay: Phosphorylation of Ser783 of the L-VDCC α1C subunit in MIN6 cells (immunoprecipitation, Western blotting); format: cell-based, rat; conditions: MIN6 cells treated with 50 µM olomoucine, fig. 8d
Method: Recombinant cDNA encoding LoopII·III of a human α1C subunit of VDCC was subcloned into pGEX6P (Amersham Bioscience). Serine783 was mutated into alanine according to the manufacturer's instructions (Stratagene). Purified recombinant proteins were phosphorylated in vitro with the use of Cdk5/p35 (Upstate) by a conventional method (Tomizawa, K. et al. J. Cell. Biol. 163, 813-824 (2003)). […] The expression of the phosphorylated α1C subunit at Ser783 was measured using phosphorylation-specific antibodies obtained from serum of a rabbit to which CLARTApSPEKK peptide had been injected. The total amount of the subunits was detected by Western blotting analysis with the use of anti-α1C subunit antibodies (Chemicon).
Immunoprecipitation of Cav1.2 was carried out. Phosphorylation of serine 783 was measured by Western blotting.

[5] = test system: diabetes mouse models KK-Ay; assay: Hypoglycemic effects in diabetes mouse models KK-Ay; format: in vivo; conditions: KK-Ay mice, fig. 13
Method: 8-week-old ale KK-Ay mice (32 individuals, CLEA Japan, Inc.) were divided into groups (8 individuals each) with the proviso that there would be no differences among groups in terms of blood glucose levels, Hypoglycemic effects of roscovitine (LC Laboratories), which is a CDK5 inhibitor, were examined.
In order to prepare roscovitine at doses of 1 mg/kg, 10 mg/kg, and 100 mg/kg, a suspension (0.5% methylcellulose/physiological saline solution) was used. Then, subcutaneous administration of roscovitine was carried out once daily for 2 consecutive weeks. A solvent alone was administered to a control group. Blood glucose levels were measured one day before day 0 and on days 3, 7, 10, and 14 with the use of a blood glucose monitor (Free Style, NIPRO).
In fig. 13, the unit of the vertical axis is indicated by "mg/dL." In fig. 14, the unit of the vertical axis is indicated by "g."

Cdk5 = Cdk5 (Homo sapiens, UniProt Q00535); conditions: cited from earlier work
Chain of Cdk5 (Q00535 whole entry, species assumed): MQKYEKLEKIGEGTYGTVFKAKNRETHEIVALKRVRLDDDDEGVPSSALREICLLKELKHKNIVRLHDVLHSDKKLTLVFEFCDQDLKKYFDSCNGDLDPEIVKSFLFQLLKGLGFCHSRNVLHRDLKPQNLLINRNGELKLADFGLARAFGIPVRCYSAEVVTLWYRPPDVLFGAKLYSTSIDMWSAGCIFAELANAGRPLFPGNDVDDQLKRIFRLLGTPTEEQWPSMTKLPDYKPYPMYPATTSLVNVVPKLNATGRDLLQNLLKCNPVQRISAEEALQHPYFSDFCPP
Chain of Cdk5 (Q15078 whole entry partner, species assumed): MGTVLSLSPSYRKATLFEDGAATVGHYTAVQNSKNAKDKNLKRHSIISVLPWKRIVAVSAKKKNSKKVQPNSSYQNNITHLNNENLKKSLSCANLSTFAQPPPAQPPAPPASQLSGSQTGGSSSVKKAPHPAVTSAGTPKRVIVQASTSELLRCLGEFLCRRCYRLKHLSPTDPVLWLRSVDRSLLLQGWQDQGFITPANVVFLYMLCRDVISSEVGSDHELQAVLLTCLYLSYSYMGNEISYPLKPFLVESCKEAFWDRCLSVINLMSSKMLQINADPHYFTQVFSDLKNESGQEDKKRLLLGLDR

Molecule: CC1=NS(=O)(=O)c2cc(Cl)ccc2N1 [diazoxide]
- Olomoucine-dependant promotion of high-glucose-stimulated insulin secretion (MIN6 cells [1]; 100 µM diazoxide, 50 µM olomoucine, 17.6 mM glucose, fig. 6g): completely suppressed

Molecule: C=C[C@@]1(C)CC(=O)[C@]2(O)[C@@]3(C)[C@@H](O)CCC(C)(C)[C@@H]3[C@H](O)[C@H](OC(C)=O)[C@@]2(C)O1 [forskolin]
- forskolin-stimulated insulin secretion (MIN6 cells [1]; 10 µM forskolin, 50 µM olomoucine, KRB 2.8 mM glucose, fig. 6h, unit not given): 122.7 ± 9.3

Molecule: COc1ccc(Cl)cc1C(=O)NCCc1ccc(S(=O)(=O)NC(=O)NC2CCCCC2)cc1 [glibenclamide]
- insulin secretion in islets of Langerhans (insulin secretion percentage) (islets of Langerhans; 30 minutes): significant increase in insulin secretion
- insulin secretion (MIN6 cells [1]; KRB high glucose 17.6 mM, fig. 6f): 412.5 ± 35.7 µg/h
- insulin secretion (MIN6 cells [1]; KRB low glucose 2.8 mM, fig. 6e): 116.3 ± 1.0 µg/h

Molecule: Cn1cnc2c(NCc3ccccc3)nc(NCCO)nc21 [olomoucine]
- insulin secretion (islets of Langerhans): significantly promoted insulin secretion
- insulin secretion of islets of Langerhans (islets of Langerhans; 3.3 mM glucose (low), olomoucine at different concentrations, 30 minutes, fig. 1): had no influence at all
- insulin secretion levels (islets of Langerhans; 17.3 mM glucose (high), olomoucine at different concentrations, 30 minutes, versus absence of olomoucine, fig. 2): significantly increased
- secretion at low glucose levels (islets of Langerhans; isolated islets of Langerhans, fig. 9a): did not influence
- insulin secretion in islets of Langerhans (insulin secretion percentage) (islets of Langerhans; 30 minutes): did not influence insulin secretion
- glucose-stimulated insulin secretion in isolated islets of Langerhans (islets of Langerhans; olomoucine at concentrations shown in fig. 9a): promoted glucose-stimulated insulin secretion in a dose-dependent manner
- Ca2+ influxes in the absence of glucose and glibenclamide (MIN6 cells [2]): did not influence
- Ca2+ influxes induced by glibenclamide (MIN6 cells [2]; 100 nM glibenclamide, maximum Ca2+ influx normalized, figs. 7b-1 and 7b-2): 129 ± 4.5%
- Ca2+ influxes induced by glucose (MIN6 cells [2]; 17.6 mM glucose, maximum Ca2+ influx normalized, figs. 7a-1 and 7a-2): 114.4 ± 2.1%
- Peak Ca2+ currents (L-VDCC; depolarization to 10 mV, control cells -15.1 ± 1.67 A/F): -20.1 ± 1.59 A/F
- inward Ca2+ currents (L-VDCC; step pulses from -40 mV to +60 mV, fig. 7c): enhanced inward Ca^2+ currents
- insulin secretion under low glucose conditions (MIN6 cells [1]; 2.8 mM glucose, 1 hour, fig. 6c): insulin secretion was not promoted
- insulin secretion induced by forskolin (MIN6 cells [1]; effect of 50 µM olomoucine, 10 µM forskolin, 2.8 mM glucose, P > 0.05, fig. 6h): did not influence
- insulin secretion induced by glibenclamide (MIN6 cells [1]; effect of olomoucine, low glucose 2.8 mM, fig. 6e): significantly promoted
- high-glucose-stimulated insulin secretion (MIN6 cells [1]; fig. 6c): promoted high-glucose-stimulated insulin secretion in a dose-dependent manner
- insulin secretion of MIN6 cells (MIN6 cells [3]): action of promoting insulin secretion
- phosphorylation of Ser783 [4]: decrease in phosphorylation

Molecule: CC[C@H](CO)Nc1nc(NCc2ccccc2)c2ncn(C(C)C)c2n1 [roscovitine]
- blood glucose levels ([5]; 1 mg/kg subcutaneous once daily for 2 consecutive weeks): obvious hypoglycemic effects were not observed
- blood glucose levels ([5]; 10 mg/kg subcutaneous once daily for 2 consecutive weeks): obvious hypoglycemic effects were not observed
- blood glucose levels ([5]; 100 mg/kg subcutaneous once daily for 2 consecutive weeks): statistically significant decreases
- high-glucose-stimulated insulin secretion (MIN6 cells [1]; fig. 6c): also confirmed
- insulin secretion of MIN6 cells (MIN6 cells [3]): promoted

Molecule: iso-olomoucine
- insulin secretion (islets of Langerhans): did not promote insulin secretion at all
- insulin secretion (MIN6 cells [1]; 20 µM, fig. 6d): did not influence insulin secretion
- Cdk5 inhibitory effect (Cdk5): does not have a Cdk5 inhibitory effect
